Patent US11046699B2, “Pyrazolo-pyrimidin-amino-cycloalkyl compounds and their therapeutic uses” (RAPT THERAPEUTICS, INC., priority 2018, dated 2021)
Read-outs that look alike come from different tables or passages of the source.

Molecular target: GCN2 (Homo sapiens, UniProt Q9P2K8)
Experiment: GCN2 enzymatic endpoint assay: phosphorylation of GFP-eIF2α measured by TR-FRET (Lanthascreen)
Assay type: biochemical
Procedure: The Enzymatic assay was run as an endpoint assay to quantify the activity of the serine/threonine GCN2 kinase by way of measuring phosphorylation of its natural substrate, eiF2α.
The enzymatic reaction was initiated by incubating with 2 μM ATP and 80 nM of GFP labeled eiF2a substrate at room temperature and then stopped after 90 minutes with EDTA. The amount of phosphorylated eIF2α is determined by TR-FRET (Lanthascreen). A terbium labeled antibody associates with the phosphorylated substrate resulting in an increased TR-FRET value. Activity was calculated as the ratio of the acceptor (fluorescein) signal at 520 nm wavelength to the donor (terbium) signal 495 nm. The amount of antibody that is bound to the tracer is directly proportional to the amount of phosphorylated substrate present, and in this manner, kinase activity can be detected and measured by an increase in the TR-FRET value.
Compound addition by D300
5 μL enzyme solution in assay buffer
5 μL substrate/ATP mixture in assay buffer
5 μL stop/detection mix in antibody dilution buffer

[1] = tested as described in Example 77, compound and/or hydrochloride, dihydrochloride or trifluoroacetic acid salt, read-out: IC 50 Activity
[2] = GCN2 biochemical IC50, 4 nM GCN2, 2 μM ATP, 80 nM GFP-eIF2α, 90 min RT, read-out: GCN2 activity

Sequence of GCN2 (Q9P2K8 whole entry): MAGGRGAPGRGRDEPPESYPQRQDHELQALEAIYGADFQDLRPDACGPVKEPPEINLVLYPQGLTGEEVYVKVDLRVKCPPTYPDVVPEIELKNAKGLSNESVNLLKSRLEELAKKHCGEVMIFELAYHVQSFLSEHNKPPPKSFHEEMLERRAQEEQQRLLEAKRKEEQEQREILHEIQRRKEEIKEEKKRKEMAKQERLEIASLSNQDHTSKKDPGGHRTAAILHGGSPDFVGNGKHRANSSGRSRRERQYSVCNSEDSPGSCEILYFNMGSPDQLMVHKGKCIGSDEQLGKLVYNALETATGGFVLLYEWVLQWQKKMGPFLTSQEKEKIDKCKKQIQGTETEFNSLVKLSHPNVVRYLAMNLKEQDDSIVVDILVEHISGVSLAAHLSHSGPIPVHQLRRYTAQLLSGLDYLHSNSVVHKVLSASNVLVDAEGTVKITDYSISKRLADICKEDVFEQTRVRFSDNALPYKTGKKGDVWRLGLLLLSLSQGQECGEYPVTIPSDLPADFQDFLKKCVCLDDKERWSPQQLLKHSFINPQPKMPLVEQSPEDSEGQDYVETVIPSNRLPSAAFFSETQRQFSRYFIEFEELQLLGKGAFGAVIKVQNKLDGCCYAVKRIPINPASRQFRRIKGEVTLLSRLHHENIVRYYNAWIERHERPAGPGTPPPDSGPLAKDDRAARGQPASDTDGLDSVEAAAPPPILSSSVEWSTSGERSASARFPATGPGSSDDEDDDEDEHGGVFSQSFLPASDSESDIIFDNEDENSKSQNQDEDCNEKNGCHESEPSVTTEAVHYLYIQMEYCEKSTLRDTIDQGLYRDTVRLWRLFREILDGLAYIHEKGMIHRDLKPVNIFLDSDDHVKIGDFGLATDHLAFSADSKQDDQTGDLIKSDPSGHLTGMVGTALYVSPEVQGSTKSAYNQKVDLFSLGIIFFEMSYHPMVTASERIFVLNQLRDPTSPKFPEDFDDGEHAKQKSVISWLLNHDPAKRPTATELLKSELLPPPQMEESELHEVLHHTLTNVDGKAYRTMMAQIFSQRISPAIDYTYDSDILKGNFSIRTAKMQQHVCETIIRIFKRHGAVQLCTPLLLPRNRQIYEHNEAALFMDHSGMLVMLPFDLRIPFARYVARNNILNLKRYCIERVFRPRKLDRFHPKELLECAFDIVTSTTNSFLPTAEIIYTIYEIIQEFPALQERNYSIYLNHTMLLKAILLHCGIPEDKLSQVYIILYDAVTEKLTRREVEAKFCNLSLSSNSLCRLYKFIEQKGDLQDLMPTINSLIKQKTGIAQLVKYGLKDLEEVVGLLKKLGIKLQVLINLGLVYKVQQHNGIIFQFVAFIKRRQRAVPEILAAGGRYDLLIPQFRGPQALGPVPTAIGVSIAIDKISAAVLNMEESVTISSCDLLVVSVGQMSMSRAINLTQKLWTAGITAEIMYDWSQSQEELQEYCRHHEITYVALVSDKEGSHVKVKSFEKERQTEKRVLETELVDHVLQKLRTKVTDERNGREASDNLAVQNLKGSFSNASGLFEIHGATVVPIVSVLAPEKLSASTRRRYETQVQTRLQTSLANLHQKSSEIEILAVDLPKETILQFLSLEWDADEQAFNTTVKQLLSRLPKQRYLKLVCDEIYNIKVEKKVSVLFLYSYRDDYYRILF

CNC(=O)[C@]1(C)CC[C@@H](Nc2ncc3c(Br)nn(-c4cc(C#N)cc(OCCOC)c4)c3n2)C1 [(1R,3R)-3-[[3-bromo-1-[3-cyano-5-(2-methoxyethoxy)phenyl]pyrazolo[3,4-d]pyrimidin-6-yl]amino]-N,1-dimethyl-cyclopentanecarboxamide]
IC50 [1]: 0.025 to 0.2 µM

CNC(=O)[C@]1(CC#N)CC[C@@H](Nc2ncc3c(Br)nn(-c4cc(F)c5ncccc5c4)c3n2)C1 (single isomer, unassigned) [Example 19]
IC50 [2]: 0.025 to 0.2 µM

CNC(=O)[C@]1(C)CC[C@@H](Nc2ncc3c(Br)nn(-c4ccc(-c5ncco5)c(CCN(C)C)c4)c3n2)C1 [Example 62, (1R,3R)-3-((3-bromo-1-(3-(2-(dimethylamino)ethyl)-4-(oxazol-2-yl)phenyl)-1H-pyrazolo[3,4-d]pyrimidin-6-yl)amino)-N,1-dimethylcyclopentane-1-carboxamide; 2,2,2-trifluoroacetic acid]
IC50 [2]: 0.025 to 0.2 µM

CNC(=O)[C@]1(C)CC[C@@H](Nc2ncc3c(Br)nn(-c4cc(C#N)cc(OCC#N)c4)c3n2)C1 [(1R,3R)-3-[[3-bromo-1-[3-cyano-5-(cyanomethoxy)phenyl]pyrazolo[3,4-d]pyrimidin-6-yl]amino]-N,1-dimethyl-cyclopentanecarboxamide]
IC50 [1]: 0.025 to 0.2 µM

CNC(=O)[C@@H]1CC[C@@H](Nc2ncc3c(Br)nn(-c4ccc(-c5ncco5)cc4)c3n2)C1 [Example 10, (1R,3R)-3-((3-bromo-1-(4-(oxazol-2-yl)phenyl)-1H-pyrazolo[3,4-d]pyrimidin-6-yl)amino)-N-methylcyclopentane-1-carboxamide]
IC50 [2]: 0.025 to 0.2 µM

COC(C)(C)CN(C)C(=O)[C@]1(C)CC[C@@H](Nc2ncc3c(Br)nn(-c4cc(F)c5ncccc5c4)c3n2)C1 [(1R,3R)-3-[[3-bromo-1-(8-fluoro-6-quinolyl)pyrazolo[3,4-d]pyrimidin-6-yl]amino]-N-(2-methoxy-2-methyl-propyl)-N,1-dimethyl-cyclopentanecarboxamide]
IC50 [1]: < 0.025 µM

CNC(=O)[C@]1(C)CC[C@@H](Nc2ncc3c(Br)nn(-c4ccc5nncn5c4)c3n2)C1 [(1R,3R)-3-[[3-bromo-1-([1,2,4]triazolo [4,3-a]pyridin-6-yl)pyrazolo[3,4-d]pyrimidin-6-yl]amino]-N,1-dimethyl-cyclopentanecarboxamide]
IC50 [1]: 0.025 to 0.2 µM

CC(C)NC(=O)CN(C)C(=O)[C@@H]1CC[C@@H](Nc2ncc3c(Br)nn(-c4ccc5ncccc5c4)c3n2)C1 [(1R,3R)-3-((3-bromo-1-(quinolin-6-yl)-1H-pyrazolo[3,4-d]pyrimidin-6-yl)amino)-N-(2-(isopropylamino)-2-oxoethyl)-N-methylcyclo-pentane-1-carboxamide]
IC50 [1]: 0.025 to 0.2 µM

CN(CC1(C)COC1)C(=O)C1(C)CC[C@@H](Nc2ncc3c(Br)nn(-c4cc(F)c5ncccc5c4)c3n2)C1 (some centres unmarked)
IC50 [1]: < 0.025 µM

CNC(=O)C1(C)CC[C@@H](Nc2ncc3c(Br)nn(-c4cc(Cl)cc(C(N)=O)c4)c3n2)C1 (stereo partly drawn) [3-[3-bromo-6-[[(1R)-3-methyl-3-(methylcarbamoyl)cyclopentyl]amino]pyrazolo[3,4-d]pyrimidin-1-yl]-5-chloro-benzamide]
IC50 [1]: < 0.025 µM

Fc1cc(-n2nc(Br)c3cnc(N[C@H]4CCOC4)nc32)cc2cccnc12 [3-bromo-1-(8-fluoro-6-quinolyl)-N-[(3S)-tetrahydrofuran-3-yl]pyrazolo [3,4-d]pyrimidin-6-amine]
IC50 [1]: 0.025 to 0.2 µM

CNC(=O)[C@]1(C)CC[C@@H](Nc2ncc3c(Br)nn(-c4ccc(-c5nnc(CCOC)s5)cc4)c3n2)C1
IC50 [1]: 0.025 to 0.2 µM

CNC(=O)C1(C)CC[C@@H](Nc2ncc3c(Br)nn(-c4ccc5nc(OC)ccc5c4)c3n2)C1 (stereo partly drawn) [(3R)-3-[[3-bromo-1-(2-methoxy-6-quinolyl)pyrazolo[3,4-d]pyrimidin-6-yl]amino]-N,1-dimethyl-cyclopentanecarboxamide]
IC50 [1]: 0.025 to 0.2 µM

CNC(=O)[C@]1(C)CC[C@@H](Nc2ncc3c(Br)nn(-c4cc5cccnc5cn4)c3n2)C1 [(1R,3R)-3-[[3-bromo-1-(1,7-naphthyridin-6-yl)pyrazolo[3,4-d]pyrimidin-6-yl]amino]-N,1-dimethyl-cyclopentane-carboxamide]
IC50 [1]: 0.025 to 0.2 µM

N#Cc1cc(-n2nc(Br)c3cnc(N[C@@H]4CC[C@@H](C(=O)N5CCS(=N)(=O)CC5)C4)nc32)cc2cccnc12
IC50 [1]: < 0.025 µM

COC(=O)C1CN(C(=O)[C@@H]2CC[C@@H](Nc3ncc4c(Br)nn(-c5ccc6ncccc6c5)c4n3)C2)CCN1 (mixture of isomers)
IC50 [1]: 0.025 to 0.2 µM

CNC(=O)[C@H]1CC[C@@H](Nc2ncc3c(Br)nn(-c4ccc5nc(OC)ccc5c4)c3n2)C1 [(1S,3R)-3-[[3-bromo-1-(2-methoxy-6-quinolyl)pyrazolo[3,4-d]pyrimidin-6-yl]amino]-N-methyl-cyclopentanecarboxamide]
IC50 [1]: 0.025 to 0.2 µM

O=C([C@@H]1CC[C@@H](Nc2ncc3c(Br)nn(-c4ccc5ncccc5c4)c3n2)C1)N1C[C@H]2C[C@@H]1CO2 [((1R,4R)-2-oxa-5-azabicyclo[2.2.1]heptan-5-yl) ((1R,3R)-3-((3-bromo-1-(quinolin-6-yl)-1H-pyrazolo[3,4-d]pyrimidin-6-yl)amino)cyclo-pentyl)methanone]
IC50 [1]: 0.025 to 0.2 µM

CNC(=O)[C@]1(CC(F)(F)F)CC[C@@H](Nc2ncc3c(Br)nn(-c4ccc(-c5nnc(C)s5)cc4)c3n2)C1
IC50 [1]: 0.025 to 0.2 µM

O=C1CC(CNC(=O)[C@@H]2CC[C@@H](Nc3ncc4c(Br)nn(-c5ccc6ncccc6c5)c4n3)C2)CCN1 (stereo partly drawn) [(1R,3R)-3-((3-bromo-1-(quinolin-6-yl)-1H-pyrazolo[3,4-d]pyrimidin-6-yl)amino)-N-((2-oxopiperidin-4-yl)methyl)cyclopentane-1-carboxamide]
IC50 [1]: 0.025 to 0.2 µM

CNC(=O)C1(C)CC[C@@H](Nc2ncc3c(Br)nn(-c4ccc(-c5cnn(CCOC)c5)cc4)c3n2)C1 (stereo partly drawn) [(3R)-3-[[3-bromo-1-[4-[1-(2-methoxyethyl)pyrazol-4-yl]phenyl]pyrazolo[3,4-d]pyrimidin-6-yl]amino]-N,1-dimethyl-cyclopentanecarboxamide]
IC50 [1]: 0.025 to 0.2 µM

CNC(=O)[C@]1(C)CCC(Nc2ncc3c(Br)nn(-c4ccc5c(c4)CNC5=O)c3n2)C1 (stereo partly drawn) [(1R)-3-[[3-bromo-1-(1-oxoisoindolin-5-yl)pyrazolo[3,4-d]pyrimidin-6-yl]amino]-N,1-dimethyl-cyclopentanecarboxamide]
IC50 [1]: 0.025 to 0.2 µM

CNC(=O)[C@@H]1CC[C@@H](Nc2ncc3c(Br)nn(-c4ccc5nc(C)c(F)cc5c4)c3n2)C1 [(1R,3R)-3-((3-bromo-1-(3-fluoro-2-methyl-quinolin-6-yl)-1H-pyrazolo[3,4-d]pyrimidin-6-yl)amino)-N-methylcyclopentane-1-carboxamide]
IC50 [1]: 0.025 to 0.2 µM

CNC(=O)[C@]1(C)CC[C@@H](Nc2ncc3c(Br)nn(-c4ccc(-c5cnon5)cc4)c3n2)C1 [(1R,3R)-3-[[3-bromo-1-[4-(1,2,5-oxadiazol-3-yl)phenyl]pyrazolo[3,4-d]pyrimidin-6-yl]amino]-N,1-dimethyl-cyclopentane-carboxamide]
IC50 [1]: 0.025 to 0.2 µM

CNC(=O)[C@]1(C)CC[C@@H](Nc2ncc3c(Br)nn(-c4cc(Cl)cc(CNS(C)(=O)=O)c4)c3n2)C1 [(1R,3R)-3-[[3-bromo-1-[3-chloro-5-(methanesulfonamidomethyl)phenyl]pyrazolo[3,4-d]pyrimidin-6-yl]amino]-N,1-dimethyl-cyclopentanecarboxamide]
IC50 [1]: 0.025 to 0.2 µM

Cc1ccc2cc(-n3nc(Br)c4cnc(N[C@@H]5CC[C@@H](P(C)(C)=O)C5)nc43)cc(F)c2n1 [3-bromo-N-[(1R,3R)-3-dimethylphosphoryl-cyclopentyl]-1-(8-fluoro-2-methyl-6-quinolyl) pyrazolo[3,4-d]pyrimidin-6-amine]
IC50 [1]: 0.025 to 0.2 µM

O=C(N[C@@H]1CCOC1)[C@@H]1CC[C@@H](Nc2ncc3c(Br)nn(-c4ccc5ncccc5c4)c3n2)C1 [(1R,3R)-3-((3-bromo-1-(quinolin-6-yl)-1H-pyrazolo[3,4-d]pyrimidin-6-yl)amino)-N-((R)-tetrahydrofuran-3-yl)cyclopentane-1-carboxamide]
IC50 [1]: 0.025 to 0.2 µM

CNC(=O)[C@]1(C)CC[C@@H](Nc2ncc3c(Br)nn(-c4ccc(-c5nnc(C)s5)cc4)c3n2)C1 [Example 38, (1R,3R)-3-((3-bromo-1-(4-(5-methyl-1,3,4-thiadiazol-2-yl)phenyl)-1H-pyrazolo[3,4-d]pyrimidin-6-yl)amino)-N,1-dimethylcyclopentane-1-carboxamide]
IC50 [2]: < 0.025 µM

CNC(=O)[C@@H]1CC[C@@H](Nc2ncc3c(Br)nn(-c4ccc5nc(OC)ccc5c4)c3n2)C1 [(1R,3R)-3-[[3-bromo-1-(2-methoxy-6-quinolyl)pyrazolo[3,4-d]pyrimidin-6-yl]amino]-N-methyl-cyclopentanecarboxamide]
IC50 [1]: 0.025 to 0.2 µM

COCCNS(=O)(=O)[C@H]1CC[C@@H](Nc2ncc3c(Br)nn(-c4ccc(-c5nnc(C)s5)cc4)c3n2)C1 [(1S,3R)-3-[[3-bromo-1-[4-(5-methyl-1,3,4-thiadiazol-2-yl)phenyl]pyrazolo[3,4-d]pyrimidin-6-yl]amino]-N-(2-methoxyethyl)cyclopentanesulfonamide]
IC50 [1]: 0.025 to 0.2 µM

CNC(=O)[C@]1(C)CC[C@@H](Nc2ncc3c(Br)nn(-c4ccc5nc(N6CCNCC6)ncc5c4)c3n2)C1
IC50 [1]: < 0.025 µM

C[C@@]1(C(=O)N2CCN3C(=O)CC[C@H]3C2)CC[C@@H](Nc2ncc3c(Br)nn(-c4cc(F)c5ncccc5c4)c3n2)C1 [(8aS)-2-[(1R,3R)-3-[[3-bromo-1-(8-fluoro-6-quinolyl)pyrazolo[3,4-d]pyrimidin-6-yl]amino]-1-methyl-cyclopentanecarbonyl]-1,3,4,7,8,8a-hexahydropyrrolo[1,2-a]pyrazin-6-one]
IC50 [1]: 0.025 to 0.2 µM
